This passage reports Kd results from paper PMC10326885, “Design of Heme Enzymes with a Tunable Substrate Binding Pocket Adjacent to an Open Metal Coordination Site” (Journal of the American Chemical Society, 2023).

The target of this assay is T1, dnHEM1 (synthetic construct, UniProt Z9V042XZY6).
T1 construct: de novo alpha-helical closed solenoid (toroid) from designed scaffold PDB 4YXX, redesigned with Rosetta, surface desymmetrized by K29W and K165Y (already part of dnHEM1); expressed in E. coli; monomer
T1 sequence (Z9V042XZY6 1-210): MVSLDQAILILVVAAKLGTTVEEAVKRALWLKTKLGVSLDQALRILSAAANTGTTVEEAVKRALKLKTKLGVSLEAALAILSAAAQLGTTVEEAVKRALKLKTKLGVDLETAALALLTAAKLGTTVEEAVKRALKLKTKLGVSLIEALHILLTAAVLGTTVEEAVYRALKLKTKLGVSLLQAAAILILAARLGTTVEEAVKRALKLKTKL
Description: UV/Vis titration of hemin into apo-protein, absorbance at […] nm. The format is binding.

As to `C=CC1=C(C)C2=Cc3c(C=C)c(C)c4[n]3[Fe]([Cl])[n]3c(c(C)c(CCC(=O)O)c3=CC3=NC(=C4)C(C)=C3CCC(=O)O)=CC1=N2` [hemin], binding was characterised by a dissociation constant (Kd) of 2.5 ± 1.2 nM.

What is called Kd is a measure of binding affinity in units of concentration. Low values mean higher affinity, high ones lower affinity.
